Measured values: PMC10927086, “Effects of structurally distinct human HDAC6 and HDAC6/HDAC8 inhibitors against S. mansoni larval and adult worm stages” (PLOS Neglected Tropical Diseases, 2024)

Experiments:
hHDAC8 = details: recombinant enzyme, previously reported; ref [25]; cited from earlier work
[1] = tested on: histone proteins of S. mansoni adult worm pairs; experiment: Western blot, histone acetylation (anti-acetylated lysine) in adult worm pairs; assay type: cell-based, Schistosoma mansoni; details: 48 h and 72 h, partially lethal and sub-lethal doses
Method: (§1) Ten adult pairs were treated with selected HDAC inhibitors for 48 h or 72 h at partially lethal and sublethal concentrations. Compound concentrations were selected based on the viability curve, Trichostatin A (TSA), a pan-HDAC inhibitor, and NF2503 a SmHDAC8 inhibitor chemically characterized by the presence of a hydroxamate-based MBG (metal binding group) coupled to a tricyclic thieno[3,2-b]indole core as capping group, previously described were used as positive controls in the experiments; DMSO (vehicle) was the negative control. Parasites were processed as previously described and samples were analyzed by 15% SDS-PAGE, and immunoblotting was performed using α-tubulin DM1A (1:5000), α-acetylated-lysine (1:4000) and α-acetylated tubulin (1:3000) antibodies. A Chemidoc XRS Bio-Rad with a chemiluminescent camera and Bio-Rad ImageLab 4.0 software were used for the acquisition and analysis of images. Each Western blot analysis was calibrated by Ponceau staining.
(§2) TSA, a known pan- class I and class II HDAC -inhibitor, and NF2503, a HDAC inhibitor previously shown to impact histone acetylation in adult worm pairs were used as positive controls.
(§3) Fig 6 Effects of selected compounds on histones and tubulin acetylation. […]

hHDAC1 = details: recombinant enzyme, previously reported; ref [25]; cited from earlier work
[2] = MTT cytotoxicity assay on BJ fibroblasts; assay type: cell-based; details: human, BJ fibroblast cells, compounds 100-0.78 μM, GA 10-0.078 μM, 2 independent experiments
Method: The NCTC clone 929 (L-929) murine fibroblast isolated from subcutaneous connective tissue (ATCC-CCL-1) were cultured in Dulbecco’s Modified Eagle Medium (DMEM) supplemented with 10 mM Hepes (pH 6.98–7.30), 1 mM l-glutamine, 100 U/ml of penicillin/streptomycin (BioWhittaker, Lonza, EuroClone SpA), and heat-inactivated 10% FBS. All cells were cultured at 37°C in a 5% CO2 humidified incubator.
The MTT method was employed as previously described to determine the viability of fibroblast cell lines. Briefly, cells seeded into 96-well plates at a density of 20,000 cells/well after overnight incubation, were exposed to selected compounds at the indicated concentrations for 24–72 h. Next they were gently washed, incubated with MTT (bromuro di 3-(4,5-dimetiltiazol-2-il)-2,5-diphenyltetrazolium) for 4 h, and processed for color detection with DMSO. The resulting purple solution was spectrophotometrically measured at 570 nm using a Varioskan Lux instrument and Skanit software (Thermo Fisher Scientific).
The optical density values for both assays were expressed as a percentage of cell survival and normalized with the value of cells treated with vehicle (DMSO), and the data were analyzed using GraphPad Prism v9.5.1 software (San Diego, CA, USA).
The cytotoxicity of the hit compounds was assessed in two independent experiments on murine L929 and human BJ fibroblasts at 24 h by MTT assays. Vehicle (DMSO) and Gambogic acid (GA) were used as negative and positive control respectively. The compounds show a safe profile on both cell lines (S2 Table).
The IC50(μM) shown was calculated by dose-response curves of the compounds on murine L929 and human BJ fibroblast cells. […] The data are representative of 2 independent experiments. Gambogic acid (GA) and vehicle (DMSO) were used as positive and negative controls respectively. (DOCX)

[3] = tested on: tubulin of S. mansoni adult worm pairs; experiment: Western blot, tubulin acetylation in adult worm pairs; assay type: cell-based, Schistosoma mansoni; details: 48 h and 72 h, partially lethal and sub-lethal doses
Method: as §1, §2, §3

[4] = design: method as in earlier work; details: QikProp, ref [25], cited from earlier work; for %HOA predicted human oral absorption: 0 to 100% scale, >80% high; for QPlogS predicted aqueous solubility: log value, recommended -6.5-0.5; for SASA predicted total solvent accessible surface: recommended 300-1000, in Å2 (unit assumed); for QPlogP predicted octanol/water partition coefficient: recommended -2-6.5
hHDAC6 = details: recombinant enzyme, previously reported; ref [25]; cited from earlier work
Caco-2 cell = tested on: Caco-2 cell; design: method as in earlier work; details: QikProp; >500 great; ref [25]; cited from earlier work
MDCK cell = tested on: MDCK cell; design: method as in earlier work; details: QikProp; >500 great; ref [25]; cited from earlier work
SmHDAC8 = molecular target: T1, SmHDAC8 (Schistosoma mansoni, UniProt A5H660); experiment: Recombinant SmHDAC8 inhibition assay (Fluor de Lys); assay type: biochemical; details: Fluor-de-Lys substrate 50 μM, inhibitor 25-0.04 μM, average of three experiments ± SD
T1 construct: made in house; host or cells: E. coli
T1 sequence (A5H660 1-440): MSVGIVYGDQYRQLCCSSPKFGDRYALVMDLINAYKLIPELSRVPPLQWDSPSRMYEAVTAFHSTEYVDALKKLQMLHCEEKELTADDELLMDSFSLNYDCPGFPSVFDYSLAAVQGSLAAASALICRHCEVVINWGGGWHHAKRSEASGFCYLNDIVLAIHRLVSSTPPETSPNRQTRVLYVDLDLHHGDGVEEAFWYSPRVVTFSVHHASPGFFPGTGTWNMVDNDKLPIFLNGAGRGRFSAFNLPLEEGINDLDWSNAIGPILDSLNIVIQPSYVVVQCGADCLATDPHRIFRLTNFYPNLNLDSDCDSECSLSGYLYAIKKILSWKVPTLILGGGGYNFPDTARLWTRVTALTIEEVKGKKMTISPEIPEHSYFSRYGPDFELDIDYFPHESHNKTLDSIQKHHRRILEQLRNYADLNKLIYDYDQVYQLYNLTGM
Method: SmHDAC8 protein was produced and purified by a method previously described by us. Inhibition assays of SmHDAC8 were performed as already described in previous publications. Briefly, the commercial Fluor de Lys kit (BML-KI178) of Enzo Life Science was used for testing the residual activity of the recombinant enzyme upon preincubation with each of the selected compounds. First the enzyme was preincubated with the selected compounds 15 min before substrate addition to the mixture. The Fluor de Lys substrate was used at 50 μM. Then, compounds, substrate, and enzyme were incubated together, and the reaction was allowed to proceed for 1 h at 30°C; subsequently, 2 μM TSA within 50 μL of 1× Developer II was added, and the mixture was further incubated for 1 h at 30°C to quench the reaction. Fluorescence was measured in a plate reader (Varioskan Lux, Thermo Fisher Scientific) with excitation at λ = 370 nm and emission at λ = 450 nm.

| SMILES | IC50 (hHDAC8) [µM] | histone acetylation vs vehicle (DMSO) [1] | IC50 (hHDAC1) [µM] | IC50 at 24 h [2] [µM] | tubulin acetylation vs vehicle (DMSO) [3] | %HOA predicted human oral absorption [4] [%] | QPlogS predicted aqueous solubility [4] [mol/dm^3] | SASA predicted total solvent accessible surface [4] | QPlogP predicted octanol/water partition coefficient [4] | IC50 (hHDAC6) [µM] | QPPCaco predicted apparent Caco-2 cell permeability (Caco-2 cell) [nm/s] | QPPMDCK predicted apparent MDCK cell permeability (MDCK cell) [nm/s] | IC50 (SmHDAC8) [µM] |
| --- | --- | --- | --- | --- | --- | --- | --- | --- | --- | --- | --- | --- | --- |
| CCN(CC)Cc1ccc(Cn2c(=O)c(OCc3ccc(C(=O)NO)cc3)c(-c3cccnc3)c3ccccc32)cc1 [NF2838] | 0.5 ± 0.2 | more strongly impact histone acetylation | 0.3 ± 0.1 | > 100 | increased acetylation | 64.57 | -4.58 | 849.77 | 3.29 | 0.0115 ± 0.0015 | 56.07 | 24.31 | 0.4 ± 0.03 |
| Cn1c(=O)c(OCc2ccc(C(=O)NO)cc2)c(C2CCCCC2)c2ccccc21 [NF2836] | 1.6 ± 0.3 | only slightly impacts histone acetylation | 3 ± 0.2 | > 100 | highest increase in tubulin acetylation | 87.94 | -5.04 | 684.14 | 3.01 | 0.033 ± 0.0026 | 264.54 | 117.53 | 2.3 ± 0.8 |
